Measurements taken from patent US11104680B2, “1,5-dihydro-4H-pyrazolo[3,4-d]pyrimidin-4-ones and 1,5-dihydro-4H-pyrazolo[4,3-c]pyridin-4-ones as PDE1 inhibitors” (H. Lundbeck A/S, priority 2016, dated 2021).

Key:
Format in all cases: biochemical
PDE1C = PDE1C (Homo sapiens (Human), UniProt Q14123); assay: PDE1 inhibition assay (PDE1C), SPA; details: 15 nM tritium labelled cAMP
Experimental: (§1) Reactions were initiated by addition of the cyclic nucleotide substrate, and reactions were allowed to proceed for 1 hr at room temperature before being terminated through mixing with 20 μL (0.2 mg) yttrium silicate SPA beads (PerkinElmer). The beads were allowed to settle for 1 hr in the dark before the plates were counted in a Wallac 1450 Microbeta counter.

PDE1A = PDE1A (Homo sapiens (Human), UniProt P54750); assay: PDE1 inhibition assay (PDE1A), SPA; details: 15 nM tritium labelled cAMP
Sequence of PDE1A (P54750 whole entry): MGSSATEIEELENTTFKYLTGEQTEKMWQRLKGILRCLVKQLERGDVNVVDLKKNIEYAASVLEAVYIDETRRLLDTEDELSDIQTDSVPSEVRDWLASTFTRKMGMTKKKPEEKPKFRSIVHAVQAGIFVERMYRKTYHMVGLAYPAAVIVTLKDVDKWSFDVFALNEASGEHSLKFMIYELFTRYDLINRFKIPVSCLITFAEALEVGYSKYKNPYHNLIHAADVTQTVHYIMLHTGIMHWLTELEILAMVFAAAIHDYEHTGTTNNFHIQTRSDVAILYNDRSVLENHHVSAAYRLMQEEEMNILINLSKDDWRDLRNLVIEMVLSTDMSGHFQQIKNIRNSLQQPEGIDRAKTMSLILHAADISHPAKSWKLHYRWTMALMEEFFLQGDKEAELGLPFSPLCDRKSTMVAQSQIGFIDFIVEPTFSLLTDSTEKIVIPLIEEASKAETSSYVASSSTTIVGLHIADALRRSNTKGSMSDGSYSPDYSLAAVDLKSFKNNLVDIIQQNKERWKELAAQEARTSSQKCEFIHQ
Experimental: as §1

PDE9 = PDE9 (Homo sapiens (Human), UniProt O76083); assay: PDE9 inhibition assay, SPA; details: 10 microM compound; 10 nM 3H-cAMP;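 note: enzyme reaction incubated for 1 h, then stopped by adding yttrium silicate scintillation proximity beads for the read-out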
Sequence of PDE9 (O76083 whole entry): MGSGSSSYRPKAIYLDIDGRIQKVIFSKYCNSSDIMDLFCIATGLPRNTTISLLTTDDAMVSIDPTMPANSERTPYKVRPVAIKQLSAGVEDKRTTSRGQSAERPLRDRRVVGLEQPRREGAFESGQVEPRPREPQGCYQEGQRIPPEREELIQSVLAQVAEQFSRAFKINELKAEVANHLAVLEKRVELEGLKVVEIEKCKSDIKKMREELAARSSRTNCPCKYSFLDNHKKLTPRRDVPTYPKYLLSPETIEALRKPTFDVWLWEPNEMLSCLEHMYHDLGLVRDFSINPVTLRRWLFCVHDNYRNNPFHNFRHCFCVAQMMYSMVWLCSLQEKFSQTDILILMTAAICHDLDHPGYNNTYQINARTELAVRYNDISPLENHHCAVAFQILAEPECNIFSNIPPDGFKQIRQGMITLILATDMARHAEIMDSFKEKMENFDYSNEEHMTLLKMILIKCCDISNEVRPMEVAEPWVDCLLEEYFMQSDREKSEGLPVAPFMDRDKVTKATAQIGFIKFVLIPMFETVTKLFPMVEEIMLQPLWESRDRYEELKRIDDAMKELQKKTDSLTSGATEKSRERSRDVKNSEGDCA
Experimental: Reactions are initiated by addition of the cyclic nucleotide substrate, and reactions are allowed to proceed for one hr at room temperature before being terminated through mixing with 15 μL 8 mg/mL yttrium silicate SPA beads (Amersham).
Following 1 hr incubation the reactions were terminated by addition of 15 uL 8 mg/mL yttrium silicate SPA beads (Amersham).

PDE1B = PDE1B (Homo sapiens (Human), UniProt Q01064); assay: PDE1 inhibition assay (PDE1B), SPA; details: 15 nM tritium labelled cAMP
Sequence of PDE1B (Q01064 whole entry): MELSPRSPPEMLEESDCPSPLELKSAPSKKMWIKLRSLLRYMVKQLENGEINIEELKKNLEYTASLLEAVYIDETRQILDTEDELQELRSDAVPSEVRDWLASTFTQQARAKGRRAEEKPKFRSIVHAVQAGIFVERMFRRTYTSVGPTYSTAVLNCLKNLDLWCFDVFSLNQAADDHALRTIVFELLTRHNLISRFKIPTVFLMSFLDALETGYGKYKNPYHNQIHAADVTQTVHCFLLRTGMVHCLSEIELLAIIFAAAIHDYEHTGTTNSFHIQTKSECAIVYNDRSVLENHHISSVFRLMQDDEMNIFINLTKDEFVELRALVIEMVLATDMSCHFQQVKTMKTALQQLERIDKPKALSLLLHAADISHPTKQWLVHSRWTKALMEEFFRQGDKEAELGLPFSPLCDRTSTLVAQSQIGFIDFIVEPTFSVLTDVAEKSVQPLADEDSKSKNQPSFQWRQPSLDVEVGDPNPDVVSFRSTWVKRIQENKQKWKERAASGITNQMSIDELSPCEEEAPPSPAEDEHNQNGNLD
Experimental: Reactions were initiated by addition of the cyclic nucleotide substrate, and reactions were allowed to proceed for 1 hr at room temperature before being terminated through mixing with 20 μL (0.2 mg) yttrium silicate SPA beads (PerkinElmer).

Sequence of PDE1C (Q14123 whole entry): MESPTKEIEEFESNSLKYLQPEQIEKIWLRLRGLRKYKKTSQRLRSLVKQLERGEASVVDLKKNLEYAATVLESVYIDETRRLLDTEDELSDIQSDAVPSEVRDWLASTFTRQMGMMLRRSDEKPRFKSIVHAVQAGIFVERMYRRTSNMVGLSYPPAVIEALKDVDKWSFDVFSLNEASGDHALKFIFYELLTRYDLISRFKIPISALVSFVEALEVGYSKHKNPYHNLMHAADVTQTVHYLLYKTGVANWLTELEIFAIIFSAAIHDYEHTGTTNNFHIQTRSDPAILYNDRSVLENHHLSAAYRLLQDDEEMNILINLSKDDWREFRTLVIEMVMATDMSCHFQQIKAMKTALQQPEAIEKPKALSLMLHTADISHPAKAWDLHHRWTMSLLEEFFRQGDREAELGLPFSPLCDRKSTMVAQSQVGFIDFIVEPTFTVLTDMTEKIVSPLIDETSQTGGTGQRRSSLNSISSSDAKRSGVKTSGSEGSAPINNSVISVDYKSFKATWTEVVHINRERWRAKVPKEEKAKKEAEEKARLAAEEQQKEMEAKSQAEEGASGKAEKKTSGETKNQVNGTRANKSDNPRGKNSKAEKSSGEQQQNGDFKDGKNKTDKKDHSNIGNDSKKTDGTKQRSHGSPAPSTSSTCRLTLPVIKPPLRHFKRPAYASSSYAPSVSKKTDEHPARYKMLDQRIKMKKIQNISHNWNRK

COc1ccc(Cn2c(C)cc3c(cnn3[C@@H]3CCO[C@H]3C)c2=O)cc1 (relative stereo) [Example 26, 5-[(4-methoxyphenyl)methyl]-6-methyl-1-[(trans)-2-methyltetrahydrofuran-3-yl]pyrazolo[4,3-c]pyridin-4-one]
IC50 (PDE1C): 345 nM | IC50 (PDE1A): 206 nM | inhibition at 10 µM (PDE9): 8% | IC50 (PDE1B): 83 nM

COc1ccc(Cn2c(C)cc3c(cnn3[C@@H]3CCO[C@@H]3C)c2=O)cc1 (relative stereo) [Example 27, 5-[(4-methoxyphenyl)methyl]-6-methyl-1-[(cis)-2-methyltetrahydrofuran-3-yl]pyrazolo[4,3-c]pyridin-4-one]
IC50 (PDE1C): 686 nM | IC50 (PDE1A): 1300 nM | inhibition at 10 µM (PDE9): 13% | IC50 (PDE1B): 179 nM

O=c1c2cnn(C3CCOCC3)c2nc(Cc2ccccc2)n1CC1CCCCC1 [Example 1, 6-benzyl-5-(cyclohexylmethyl)-1-(tetrahydro-2H-pyran-4-yl)-1,5-dihydro-4H-pyrazolo[3,4-d]pyrimidin-4-one]
IC50 (PDE1C): 120 nM | IC50 (PDE1A): 349 nM | inhibition at 10 µM (PDE9): 51% | IC50 (PDE1B): 320 nM

COc1ccc(Cn2c(C)nc3c(cnn3C3CCOCC3)c2=O)cc1 [Example 2, 5-(4-methoxybenzyl)-6-methyl-1-(tetrahydro-2H-pyran-4-yl)-1H-pyrazolo[3,4-d]pyrimidin-4(5H)-one]
IC50 (PDE1C): 74 nM | IC50 (PDE1A): 132 nM | inhibition at 10 µM (PDE9): 10% | IC50 (PDE1B): 62 nM

Cc1nc2c(cnn2C2CCOCC2)c(=O)n1CC1CCCCC1 [Example 3, 5-(cyclohexylmethyl)-6-methyl-1-tetrahydropyran-4-yl-pyrazolo[3,4-d]pyrimidin-4-one]
IC50 (PDE1C): 29 nM | IC50 (PDE1A): 172 nM | inhibition at 10 µM (PDE9): 29% | IC50 (PDE1B): 103 nM

CCCn1ncc2c(=O)n(Cc3ccc(OC)cc3)c(C)nc21 [Example 4, 5-[(4-methoxyphenyl)methyl]-6-methyl-1-propyl-pyrazolo[3,4-d]pyrimidin-4-one]
IC50 (PDE1C): 72 nM | IC50 (PDE1A): 108 nM | inhibition at 10 µM (PDE9): 13% | IC50 (PDE1B): 68 nM

CCCn1ncc2c(=O)n(CC3CCCCC3)c(C)nc21 [Example 5, 5-(cyclohexylmethyl)-6-methyl-1-propyl-pyrazolo[3,4-d]pyrimidin-4-one]
IC50 (PDE1C): 36 nM | IC50 (PDE1A): 111 nM | inhibition at 10 µM (PDE9): -16% | IC50 (PDE1B): 31 nM

CCc1nc2c(cnn2C2CCOCC2)c(=O)n1Cc1ccc(OC)cc1 [Example 6, 6-ethyl-5-[(4-methoxyphenyl)methyl]-1-tetrahydropyran-4-yl-pyrazolo[3,4-d]pyrimidin-4-one]
IC50 (PDE1C): 140 nM | IC50 (PDE1A): 107 nM | inhibition at 10 µM (PDE9): 2% | IC50 (PDE1B): 80 nM

COCc1nc2c(cnn2C2CCOCC2)c(=O)n1Cc1ccc(OC)cc1 [Example 7, 6-(methoxymethyl)-5-[(4-methoxyphenyl)methyl]-1-tetrahydropyran-4-yl-pyrazolo[3,4-d]pyrimidin-4-one]
IC50 (PDE1C): 345 nM | IC50 (PDE1A): 325 nM | inhibition at 10 µM (PDE9): -12% | IC50 (PDE1B): 181 nM

COc1ccc(Cn2c(C(C)C)nc3c(cnn3C3CCOCC3)c2=O)cc1 [Example 8, 6-isopropyl-5-[(4-methoxyphenyl)methyl]-1-tetrahydropyran-4-yl-pyrazolo[3,4-d]pyrimidin-4-one]
IC50 (PDE1C): 1320 nM | IC50 (PDE1A): 751 nM | inhibition at 10 µM (PDE9): 7% | IC50 (PDE1B): 211 nM

COc1ccc(Cn2c(CC3COC3)nc3c(cnn3C3CCOCC3)c2=O)cc1 [Example 9, 5-[(4-methoxyphenyl)methyl]-6-(oxetan-3-ylmethyl)-1-tetrahydropyran-4-yl-pyrazolo[3,4-d]pyrimidin-4-one]
IC50 (PDE1C): 165 nM | inhibition at 10 µM (PDE9): 12% | IC50 (PDE1B): 58 nM

Cc1cc2c(cnn2C2CCOCC2)c(=O)n1Cc1cccc(F)c1 [Example 10, 5-[(3-fluorophenyl)methyl]-6-methyl-1-tetrahydropyran-4-yl-pyrazolo[4,3-c]pyridin-4-one]
IC50 (PDE1C): 149 nM | IC50 (PDE1A): 1070 nM | inhibition at 10 µM (PDE9): 3%

Cc1cc2c(cnn2C2CCOCC2)c(=O)n1Cc1ccccc1F [Example 11, 5-[(2-fluorophenyl)methyl]-6-methyl-1-tetrahydropyran-4-yl-pyrazolo[4,3-c]pyridin-4-one]
IC50 (PDE1C): 61 nM | IC50 (PDE1A): 589 nM | inhibition at 10 µM (PDE9): 12%

Cc1cc2c(cnn2C2CCOCC2)c(=O)n1Cc1ccc(Cl)cc1 [Example 12, 5-[(4-chlorophenyl)methyl]-6-methyl-1-tetrahydropyran-4-yl-pyrazolo[4,3-c]pyridin-4-one]
IC50 (PDE1C): 419 nM | IC50 (PDE1A): 127 nM | inhibition at 10 µM (PDE9): 16%

Cc1cc2c(cnn2C2CCOCC2)c(=O)n1Cc1ccccc1 [Example 13, 5-benzyl-6-methyl-1-tetrahydropyran-4-yl-pyrazolo[4,3-c]pyridin-4-one]
IC50 (PDE1C): 135 nM | IC50 (PDE1A): 1260 nM | inhibition at 10 µM (PDE9): -18%

Cc1cc2c(cnn2C2CCOCC2)c(=O)n1Cc1cccc(Cl)c1 [Example 14, 5-[(3-chlorophenyl)methyl]-6-methyl-1-tetrahydropyran-4-yl-pyrazolo[4,3-c]pyridin-4-one]
IC50 (PDE1C): 95 nM | IC50 (PDE1A): 1300 nM | inhibition at 10 µM (PDE9): -15% | IC50 (PDE1B): 413 nM

Cc1cc2c(cnn2C2CCOCC2)c(=O)n1Cc1ccc(F)cc1 [Example 15, 5-[(4-fluorophenyl)methyl]-6-methyl-1-tetrahydropyran-4-yl-pyrazolo[4,3-c]pyridin-4-one]
IC50 (PDE1C): 204 nM | IC50 (PDE1A): 1240 nM | inhibition at 10 µM (PDE9): -13% | IC50 (PDE1B): 258 nM

Cc1ccc(Cn2c(C)cc3c(cnn3C3CCOCC3)c2=O)cc1 [Example 16, 6-methyl-5-(p-tolylmethyl)-1-tetrahydropyran-4-yl-pyrazolo[4,3-c]pyridin-4-one]
IC50 (PDE1C): 496 nM | IC50 (PDE1A): 400 nM | inhibition at 10 µM (PDE9): -1% | IC50 (PDE1B): 71 nM

Cc1cc2c(cnn2C2CCOCC2)c(=O)n1Cc1ccc2c(c1)OCO2 [Example 17, 5-(1,3-benzodioxol-5-ylmethyl)-6-methyl-1-tetrahydropyran-4-yl-pyrazolo[4,3-c]pyridin-4-one]
IC50 (PDE1C): 662 nM | IC50 (PDE1A): 429 nM | inhibition at 10 µM (PDE9): -2% | IC50 (PDE1B): 154 nM

COc1ccc(Cn2c(C)cc3c(cnn3C3CCOCC3)c2=O)cn1 [Example 18, 5-[(6-methoxy-3-pyridyl)methyl]-6-methyl-1-tetrahydropyran-4-yl-pyrazolo[4,3-c]pyridin-4-one]
IC50 (PDE1C): 1170 nM | IC50 (PDE1A): 738 nM | inhibition at 10 µM (PDE9): 9%

COc1ccc(Cn2c(C)cc3c(cnn3C3CCOCC3)c2=O)cc1 [Example 19, 5-(4-methoxybenzyl)-6-methyl-1-(tetrahydro-2H-pyran-4-yl)-1,5-dihydro-4H-pyrazolo[4,3-c]pyridin-4-one]
IC50 (PDE1C): 171 nM | IC50 (PDE1A): 184 nM | inhibition at 10 µM (PDE9): 19%

CCCn1ncc2c(=O)n(Cc3ccc(OC)cc3)c(C)cc21 [Example 20, 5-(4-methoxybenzyl)-6-methyl-1-propyl-1,5-dihydro-4H-pyrazolo[4,3-c]pyridin-4-one]
IC50 (PDE1C): 233 nM | IC50 (PDE1A): 290 nM | inhibition at 10 µM (PDE9): 19% | IC50 (PDE1B): 82 nM

COc1ccc(Cn2c(C)cc3c(cnn3C(C)C)c2=O)cc1 [Example 21, 1-isopropyl-5-[(4-methoxyphenyl)methyl]-6-methyl-pyrazolo[4,3-c]pyridin-4-one]
IC50 (PDE1C): 134 nM | IC50 (PDE1A): 49 nM | inhibition at 10 µM (PDE9): -14% | IC50 (PDE1B): 37 nM

COc1ccc(Cn2c(C)cc3c(cnn3C3CCOC3)c2=O)cc1 (stereo not drawn) [Example 22, 5-[(4-methoxyphenyl)methyl]-6-methyl-1-tetrahydrofuran-3-yl-pyrazolo[4,3-c]pyridin-4-one]
IC50 (PDE1C): 1200 nM | IC50 (PDE1A): 1690 nM | inhibition at 10 µM (PDE9): 8% | IC50 (PDE1B): 569 nM

COc1ccc(Cn2c(C)cc3c(cnn3C3CC3)c2=O)cc1 [Example 23, 1-cyclopropyl-5-[(4-methoxyphenyl)methyl]-6-methyl-pyrazolo[4,3-c]pyridin-4-one]
IC50 (PDE1C): 975 nM | IC50 (PDE1A): 543 nM | inhibition at 10 µM (PDE9): -6% | IC50 (PDE1B): 255 nM

CCn1ncc2c(=O)n(Cc3ccc(OC)cc3)c(C)cc21 [Example 24, 1-ethyl-5-[(4-methoxyphenyl)methyl]-6-methyl-pyrazolo[4,3-c]pyridin-4-one]
IC50 (PDE1C): 1330 nM | IC50 (PDE1A): 1120 nM | inhibition at 10 µM (PDE9): 19% | IC50 (PDE1B): 329 nM

COc1ccc(Cn2c(C)cc3c(cnn3C3CCCOC3)c2=O)cc1 (stereo not drawn) [Example 25, 5-[(4-methoxyphenyl)methyl]-6-methyl-1-tetrahydropyran-3-yl-pyrazolo[4,3-c]pyridin-4-one]
IC50 (PDE1C): 644 nM | IC50 (PDE1A): 825 nM | inhibition at 10 µM (PDE9): 8%

COc1ccc(Cn2c(C)cc3c(cnn3C3COC3)c2=O)cc1 [Example 28, 5-(4-methoxybenzyl)-6-methyl-1-(oxetan-3-yl)-1,5-dihydro-4H-pyrazolo[4,3-c]pyridin-4-one]
IC50 (PDE1C): 2180 nM | inhibition at 10 µM (PDE1A; read-out: PDE1A, % inhibition @10 μM, 10 μM compound): 63% | inhibition at 10 µM (PDE9): 14% | IC50 (PDE1B): 704 nM

COc1ccc(Cn2c(C)cc3c(cnn3C3(C)CCOCC3)c2=O)cc1 [Example 29, 5-(4-methoxybenzyl)-6-methyl-1-(4-methyltetrahydro-2H-pyran-4-yl)-1,5-dihydro-4H-pyrazolo[4,3-c]pyridin-4-one]
IC50 (PDE1C): 174 nM | IC50 (PDE1A): 119 nM | inhibition at 10 µM (PDE9): 26% | IC50 (PDE1B): 87 nM
